{"source": "paper PMC11173618", "about": "“C2-Symmetrical Terphenyl Derivatives as Small Molecule Inhibitors of Programmed Cell Death 1/Programmed Death Ligand 1 Protein–Protein Interaction” (Molecules, 2024)", "key": {"[1]": {"target": "T1, human PD-L1 protein (amino acids 18-134) (Homo sapiens, UniProt Q9NZQ7)", "T1 construct": "human PD-L1 protein (amino acids 18-134); made in house; host or cells: E. coli BL21 (pET-21b)", "T1 sequence (Q9NZQ7 18-134)": "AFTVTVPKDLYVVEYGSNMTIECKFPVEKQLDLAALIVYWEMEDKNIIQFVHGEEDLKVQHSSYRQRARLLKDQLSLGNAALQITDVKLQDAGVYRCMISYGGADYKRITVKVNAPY", "assay": "1H NMR binding assay", "details": "ligand/protein 1:1, 0.2 mM PD-L1, 300 K", "protocol": "NMR spectra were recorded in 10 mM Tris, pH 8.0 20 mM NaCl containing 10% (v/v) of D2O added to the samples to provide the lock signal. Water suppression was carried out using the WATERGATE sequence. All the spectra were recorded at 300 K using a Bruker AVANCE 600 MHz spectrometer (Bruker, Billerica, MA, USA) with the cryoplatform.\nThe spectra were recorded at the ligand/protein ratio of 1:1 unless stated otherwise. The samples were prepared by adding small amounts of a 50 mM ligand stock solution in DMSO to the protein solution (0.20 mL) of PD-L1 fragment at a concentration of 0.2 mM. […] Spectra were visualized using TopSpin 4.0.2."}, "PD-1/PD-L1 complex": {"target": "T2, PD-1/PD-L1 complex (Homo sapiens, UniProt Q9NZQ7)", "T2 construct": "purchased cis-bio", "T2 sequence (Q9NZQ7 19-238 limits assumed, one chain of several)": "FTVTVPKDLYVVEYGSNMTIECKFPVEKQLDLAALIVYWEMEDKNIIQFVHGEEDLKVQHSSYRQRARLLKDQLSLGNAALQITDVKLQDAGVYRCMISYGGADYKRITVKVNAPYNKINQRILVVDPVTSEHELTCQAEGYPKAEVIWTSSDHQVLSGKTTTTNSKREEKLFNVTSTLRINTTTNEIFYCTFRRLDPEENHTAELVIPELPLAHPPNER", "assay": "HTRF assay of PD-1/PD-L1 complex inhibition (cis-bio kit)", "assay_type": "binding", "details": "1 h, scouting mode, 5 nM PD-L1, 50 nM PD-1, read-out: HTRF [%] (percentage of dissociated PD-1/PD-L1 complex)", "procedure": "All synthesized molecules were tested in the homogeneous time-resolved fluorescence (HTRF) assay to assess their activity as inhibitors of the PD-1/PD-L1 complex (Table 1, Table 2 and Table 3). This evaluation was conducted in scouting modes, employing concentrations of 5 μM and 0.5 μM. Based on the obtained measurements, the IC50 values were estimated for each tested compound.\nThe certified cis-bio assay kit was used to perform the HTRF assay. Following the standard protocol, the measurement was carried out at a 20 µL final volume with a 5 nM concentration of PD-L1 and a 50 nM concentration of PD-1 in the final formulation. […] The plate was incubated for 1 h and then read on an HTRF-certified Tecan Spark 20M microplate reader. Output data were subjected to background subtraction on negative control (without PD-1) and normalization in correlation to the positive control (without inhibitor) and were then averaged. The resulting data points were then fitted with Hill’s equation to generate IC50 using Mathematica 12. […]"}}}
{"molecule": "COc1cccc(CNCCNC(C)=O)c1OCc1cccc(-c2cccc(-c3cccc(COc4c(CNCCNC(C)=O)cccc4OC)c3)c2C)c1", "note": "[Compound 8b, N,N’-(((((((2′-methyl-[1,1′:3′,1′′-terphenyl]-3,3′′-diyl)bis(methylene))bis(oxy))bis(3-methoxy-2,1-phenylene))bis(methylene))bis(azanediyl))bis(ethane-2,1-diyl))diacetamide]", "values": [{"measurement": "Binding to PD-L1 by 1H NMR (broadening of PD-L1 proton signals)", "setting": "[1]", "value": "affinity of the test compounds for the PD-L1 protein is confirmed"}, {"measurement": "inhibition at 0.5 µM", "setting": "PD-1/PD-L1 complex; inhibitor 0.5 µM", "value": "88.9 ± 3.8", "unit": "%"}, {"measurement": "inhibition at 5 µM", "setting": "PD-1/PD-L1 complex; inhibitor 5 µM", "value": "73.6 ± 5.3", "unit": "%"}]}
